From article PMC9508125, “The evolutionary advantage of an aromatic clamp in plant family 3 glycoside exo-hydrolases” (Nature Communications, 2022)
Where a chain is given by its changes, count along the chain named.

Key:
Experiment in all cases: Relative rates of hydrolysis of poly-, oligosaccharides and aryl-glycosides
Format in all cases: biochemical
HvExoI W286Y mutant = target: T1, HvExoI W286Y mutant (Hordeum vulgare, UniProt Q9XEI3, W311Y); conditions: substance is the substrate, nd = activity not detected
T1 sequence (Q9XEI3 26-630 W311Y): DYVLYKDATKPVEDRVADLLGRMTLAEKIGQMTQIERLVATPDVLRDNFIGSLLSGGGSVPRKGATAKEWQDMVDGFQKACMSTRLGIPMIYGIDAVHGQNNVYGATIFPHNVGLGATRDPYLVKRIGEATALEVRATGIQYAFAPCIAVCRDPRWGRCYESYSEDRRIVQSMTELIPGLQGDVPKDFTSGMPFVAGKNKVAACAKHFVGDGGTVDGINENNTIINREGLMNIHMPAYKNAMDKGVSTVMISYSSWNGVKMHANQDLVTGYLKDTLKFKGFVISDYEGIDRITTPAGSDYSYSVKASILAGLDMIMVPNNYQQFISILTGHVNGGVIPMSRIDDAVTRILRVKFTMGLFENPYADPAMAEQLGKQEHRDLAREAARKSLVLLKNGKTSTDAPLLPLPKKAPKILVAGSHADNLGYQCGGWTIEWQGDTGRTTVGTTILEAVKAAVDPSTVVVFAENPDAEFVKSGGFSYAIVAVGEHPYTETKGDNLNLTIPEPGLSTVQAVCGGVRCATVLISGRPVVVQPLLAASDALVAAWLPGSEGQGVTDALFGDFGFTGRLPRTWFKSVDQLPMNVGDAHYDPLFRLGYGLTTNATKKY
Description: (§1) Dependency of activities of WT and mutant HvExoI on pH (McIlvaine buffers in the pH range of 3.5–8.5 at 30 °C) and temperature (100 mM sodium acetate buffer, pH 5.25, temperature range 0–80 °C, 15 min incubations) were determined using 0.2% (w/v) 4NP-Glc[21],[59]. Relative rates of hydrolysis of β-linked poly-, oligosaccharides, and aryl-glucosides were determined using near-homogenous HvExoI at 50 pmoles. […] Kinetic parameters were calculated from the analyses of Michaelis-Menten plots with Grafit 7.0.3[62] and processed by a proportional weighted fit, using nonlinear regression. The relative rates of hydrolysis, kinetic, and inhibition data were rounded to one or two decimal points (Supplementary Tables 2–4).

HvExoI W434Y mutant = target: T2, HvExoI W434Y mutant (Hordeum vulgare, UniProt Q9XEI3, W459Y); conditions: substance is the substrate, nd = activity not detected
T2 sequence (Q9XEI3 26-630 W459Y): T1 sequence (Q9XEI3 26-630 W311Y) with Y286W, W434Y
Description: as §1

[1] = target: T3, HvExoI W286F/W434F mutant (Hordeum vulgare, UniProt Q9XEI3, W311F/W459F); conditions: substance is the substrate, nd = activity not detected
T3 sequence (Q9XEI3 26-630 W311F/W459F): T1 sequence (Q9XEI3 26-630 W311Y) with Y286F, W434F
Description: as §1

HvExoI W434H mutant = target: T4, HvExoI W434H mutant (Hordeum vulgare, UniProt Q9XEI3, W459H); conditions: substance is the substrate
T4 sequence (Q9XEI3 26-630 W459H): T1 sequence (Q9XEI3 26-630 W311Y) with Y286W, W434H
Description: as §1

Compound | Activity (relative rate of hydrolysis) (HvExoI W286Y mutant) | Activity (relative rate of hydrolysis) (HvExoI W434Y mutant) | Activity (relative rate of hydrolysis) [1] | Activity (relative rate of hydrolysis) (HvExoI W434H mutant)
laminarin | 14.2 ± 1.3 μmole/min per mg protein | 0.7 ± 0.03 μmole/min per mg protein | 0.2 ± 0.01 μmole/min per mg protein | 0.7 ± 0.02 μmole/min per mg protein
Cellobiose | 3.2 ± 0.1 μmole/min per mg protein | 0.1 ± 0.001 μmole/min per mg protein | 0.01 ± 0.001 μmole/min per mg protein | 0.1 ± 0.01 μmole/min per mg protein
OC[C@H]1O[C@@H](O[C@@H]2[C@@H](O)[C@H](O[C@H]3[C@H](O)[C@@H](CO)OC(O)[C@@H]3O)O[C@H](CO)[C@H]2O)[C@H](O)[C@@H](O)[C@@H]1O (some centres unmarked) [Laminaritriose] | 14.1 ± 0.4 μmole/min per mg protein | 1.4 ± 0.2 μmole/min per mg protein | 0.5 ± 0.04 μmole/min per mg protein | 1.5 ± 0.04 μmole/min per mg protein
OC[C@H]1O[C@@H](O[C@H]2[C@H](O)[C@@H](O)[C@H](O[C@H]3[C@H](O)[C@@H](O)C(O)O[C@@H]3CO)O[C@@H]2CO)[C@H](O)[C@@H](O)[C@@H]1O (some centres unmarked) [Cellotriose] | 5.6 ± 0.1 μmole/min per mg protein | 0.1 ± 0.02 μmole/min per mg protein | 0.02 ± 0.002 μmole/min per mg protein | 0.3 ± 0.03 μmole/min per mg protein
OC[C@H]1O[C@@H](O[C@@H]2[C@@H](O)[C@H](O[C@@H]3[C@@H](O)[C@H](O[C@H]4[C@H](O)[C@@H](CO)OC(O)[C@@H]4O)O[C@H](CO)[C@H]3O)O[C@H](CO)[C@H]2O)[C@H](O)[C@@H](O)[C@@H]1O (some centres unmarked) [Laminaritetraose] | 13.8 ± 0.1 μmole/min per mg protein | 1.3 ± 0.1 μmole/min per mg protein | 0.4 ± 0.04 μmole/min per mg protein | 1.4 ± 0.1 μmole/min per mg protein
OC[C@H]1O[C@@H](O[C@@H]2[C@@H](O)[C@H](O[C@@H]3[C@@H](O)[C@H](O[C@@H]4[C@@H](O)[C@H](O[C@@H]5[C@@H](O)[C@H](O)O[C@H](CO)[C@H]5O)O[C@H](CO)[C@H]4O)O[C@H](CO)[C@H]3O)O[C@H](CO)[C@H]2O)[C@H](O)[C@@H](O)[C@@H]1O [Laminaripentaose] | 14.8 ± 0.4 μmole/min per mg protein | 1.5 ± 0.1 μmole/min per mg protein | 0.4 ± 0.04 μmole/min per mg protein | 1.5 ± 0.1 μmole/min per mg protein
OC[C@H]1O[C@@H](O[C@H]2[C@H](O)[C@@H](O)[C@H](O[C@H]3[C@H](O)[C@@H](O)[C@H](O[C@H]4[C@H](O)[C@@H](O)C(O)O[C@@H]4CO)O[C@@H]3CO)O[C@@H]2CO)[C@H](O)[C@@H](O)[C@@H]1O (some centres unmarked) [Cellotetraose] | 6.3 ± 1.1 μmole/min per mg protein | 0.1 ± 0.01 μmole/min per mg protein | 0.02 ± 0.001 μmole/min per mg protein | 0.2 ± 0.01 μmole/min per mg protein
O=[N+]([O-])c1ccc(O[C@@H]2O[C@H](CO)[C@@H](O)[C@H](O)[C@H]2O)cc1 [4NP-Glc, 4-nitrophenyl β-D-glucopyranoside] | 19.6 ± 0.01 μmole/min per mg protein | 1.2 ± 0.1 μmole/min per mg protein | 0.5 ± 0.02 μmole/min per mg protein | 2.4 ± 0.2 μmole/min per mg protein
OC[C@H]1O[C@@H](O[C@H]2[C@H](O)[C@@H](CO)OC(O)[C@@H]2O)[C@H](O)[C@@H](O)[C@@H]1O (some centres unmarked) [Laminaribiose] | 13.9 ± 0.1 μmole/min per mg protein | 1.1 ± 0.1 μmole/min per mg protein | 0.5 ± 0.1 μmole/min per mg protein | 0.8 ± 0.04 μmole/min per mg protein
OC[C@H]1O[C@@H](O[C@H]2C(O)O[C@H](CO)[C@@H](O)[C@@H]2O)[C@H](O)[C@@H](O)[C@@H]1O (some centres unmarked) [Sophorose] | 12.5 ± 0.2 μmole/min per mg protein | 0.8 ± 0.1 μmole/min per mg protein | 0.3 ± 0.03 μmole/min per mg protein | 0.6 ± 0.1 μmole/min per mg protein
OC[C@H]1O[C@@H](O[C@@H]2[C@@H](O)[C@H](O[C@@H]3[C@@H](O)[C@H](O[C@@H]4[C@@H](O)[C@H](O[C@@H]5[C@@H](O)[C@H](O[C@@H]6[C@@H](O)[C@H](O[C@@H]7[C@@H](O)[C@H](O)O[C@H](CO)[C@H]7O)O[C@H](CO)[C@H]6O)O[C@H](CO)[C@H]5O)O[C@H](CO)[C@H]4O)O[C@H](CO)[C@H]3O)O[C@H](CO)[C@H]2O)[C@H](O)[C@@H](O)[C@@H]1O [Laminariheptaose] | 14.5 ± 2.0 μmole/min per mg protein | 1.3 ± 0.1 μmole/min per mg protein | 0.5 ± 0.04 μmole/min per mg protein | 1.6 ± 0.1 μmole/min per mg protein
